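The compound was tested at five concentrations on cells cultured in 96-well plates, with a 48-hour exposure period. At the TGI there is no net growth.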
Assays:
Experiment in all cases: NCI anticancer screen, dose series, 48 h
[1] = system: A549 NSCLC
[2] = system: TK-10 renal
[3] = system: K-562 leukemia
[4] = system: NCI-H23 lung
[5] = system: MCF7 breast
[6] = system: HCT-116 colon
[7] = system: UO-31 renal
[8] = system: SF-295 CNS
[9] = system: SF-539 CNS
[10] = system: SK-MEL-28 melanoma
[11] = system: MDA-MB-435
[12] = system: UACC-62 melanoma
[13] = system: HT29 colon
[14] = system: MALME-3M melanoma
[15] = system: SN12C renal
[16] = system: NCI/ADR-RES ovarian
[17] = system: SK-MEL-2 melanoma
[18] = system: MOLT-4 leukemia
[19] = system: RXF 393 renal
[20] = system: MDA-MB-231 breast
[21] = system: DU-145 prostate
[22] = system: PC-3 prostate
[23] = system: NCI-H522 lung
[24] = system: LOX IMVI melanoma
[25] = system: HOP-92 NSCLC
[26] = system: KM12 colon
[27] = system: U251 CNS
[28] = system: OVCAR-5 ovarian
[29] = system: SK-MEL-5 melanoma
[30] = system: SNB-75 CNS
[31] = system: RPMI-8226 leukemia
[32] = system: HL-60(TB) leukemia
[33] = system: T-47D breast
[34] = system: OVCAR-4 ovarian
[35] = system: SNB-19 CNS
[36] = system: HOP-62 NSCLC
[37] = system: HCT-15 colon
[38] = system: COLO 205 colon
[39] = system: SF-268 CNS
[40] = system: A498 renal
[41] = system: MDA-N
[42] = system: UACC-257 melanoma
[43] = system: CCRF-CEM leukemia
[44] = system: SK-OV-3 ovarian
[45] = system: IGROV1 ovarian
[46] = system: NCI-H460 lung
[47] = system: HS 578T breast
[48] = system: OVCAR-8 ovarian
[49] = system: M14 melanoma
[50] = system: SW-620 colon
[51] = system: HCC-2998 colon
[52] = system: NCI-H226 lung
[53] = system: EKVX NSCLC
[54] = system: SR leukemia
[55] = system: ACHN renal
[56] = system: CAKI-1 renal
[57] = system: OVCAR-3 ovarian
[58] = system: 786-0 renal
[59] = system: BT-549 breast

CC(C)[C@]12O[C@H]1[C@@H]1O[C@@]13[C@@]1(C)CCC4=C(COC4=O)[C@@H]1C[C@@H]1O[C@@]13C2=O showed a TGI [1] greater than 100 µM, a TGI [2] greater than 100 µM and a TGI [3] greater than 100 µM. For the same compound, the TGI [4] was less than 0.0276 µM, the TGI [5] was greater than 100 µM and the TGI [6] was greater than 100 µM. The TGI [7] was greater than 100 µM, the TGI [8] was greater than 100 µM and the TGI [9] was 0.0428 µM. The TGI [10] was 0.0397 µM, the TGI [11] was 0.0264 µM and the TGI [12] was 0.0312 µM. For the same compound, the TGI [13] was greater than 100 µM, the TGI [14] was 0.0541 µM and the TGI [15] was greater than 100 µM. The TGI [16] was greater than 53.2 µM, the TGI [17] was 0.0151 µM and the TGI [18] was 0.3 µM. The TGI [19] was less than 0.0158 µM, the TGI [20] was 0.834 µM and the TGI [21] was greater than 28.9 µM. For the same compound, the TGI [22] was 2.11 µM, the TGI [23] was 0.328 µM and the TGI [24] was greater than 100 µM. For the same compound, the TGI [25] was 0.0829 µM, the TGI [26] was greater than 22.6 µM and the TGI [27] was greater than 78.7 µM. The TGI [28] was greater than 100 µM, the TGI [29] was 0.0309 µM and the TGI [30] was 0.0444 µM. For the same compound, the TGI [31] was 0.063 µM, the TGI [32] was 0.0249 µM and the TGI [33] was greater than 100 µM. It also gave a TGI [34] of 0.0621 µM, a TGI [35] greater than 40.9 µM and a TGI [36] of 0.115 µM. For the same compound, the TGI [37] was greater than 100 µM, the TGI [38] was 0.025 µM and the TGI [39] was 0.522 µM. It also gave a TGI [40] of 0.0685 µM, a TGI [41] of 0.0265 µM and a TGI [42] of 0.0669 µM. The TGI [43] was greater than 100 µM, the TGI [44] was greater than 100 µM and the TGI [45] was greater than 100 µM. For the same compound, the TGI [46] was greater than 100 µM, the TGI [47] was 0.0882 µM and the TGI [48] was greater than 100 µM. The TGI [49] was 0.0493 µM and the TGI [50] was greater than 42.1 µM.
With Clc1ccccc1/C=C\C1(c2ccccc2)OCCO1 the TGI [1] was greater than 100 µM, the TGI [2] was 48.4 µM and the TGI [3] was greater than 100 µM. The TGI [4] was 22.1 µM, the TGI [5] was 7.53 µM and the TGI [6] was 25.2 µM. For the same compound, the TGI [7] was greater than 100 µM, the TGI [51] was 31.9 µM and the TGI [8] was 31.2 µM. It also gave a TGI [9] of 53.3 µM, a TGI [10] of 38 µM and a TGI [11] of 29.6 µM. The TGI [12] was 29.5 µM, the TGI [13] was 33.2 µM and the TGI [15] was 32.7 µM. The TGI [16] was 31.5 µM, the TGI [18] was 73.4 µM and the TGI [19] was 34.5 µM. The TGI [20] was 26.2 µM, the TGI [21] was 30.3 µM and the TGI [23] was 29.3 µM. The TGI [24] was 23.7 µM, the TGI [25] was greater than 100 µM and the TGI [26] was 23.7 µM. The TGI [52] was 44.3 µM, the TGI [27] was 24.8 µM and the TGI [28] was 44.4 µM. It also gave a TGI [53] of 36 µM, a TGI [29] of 38.6 µM and a TGI [30] of 34.3 µM. For the same compound, the TGI [31] was 23.1 µM, the TGI [32] was 73.9 µM and the TGI [54] was 28.9 µM. The TGI [33] was 43.4 µM, the TGI [34] was 33 µM and the TGI [55] was 31.4 µM. The TGI [36] was 39.8 µM, the TGI [37] was 26.3 µM and the TGI [38] was 40.2 µM. The TGI [39] was 29.2 µM, the TGI [40] was 35.8 µM and the TGI [56] was 31.3 µM. It also gave a TGI [41] of 30.2 µM, a TGI [42] of 31.7 µM and a TGI [43] of 53.8 µM. It also gave a TGI [44] of 91.3 µM, a TGI [45] of 29.9 µM and a TGI [46] of 32.7 µM. It also gave a TGI [47] of 35.1 µM, a TGI [57] of 31.6 µM and a TGI [48] of 34.3 µM. It also gave a TGI [58] of 31.1 µM, a TGI [49] greater than 100 µM and a TGI [50] of 43.3 µM.
O=[N+]([O-])c1ccc2c(c1)Sc1ccccc1N2CCCCCl was tested, and the TGI [1] was greater than 100 µM, the TGI [2] was greater than 100 µM and the TGI [3] was greater than 100 µM. For the same compound, the TGI [4] was greater than 100 µM, the TGI [5] was greater than 100 µM and the TGI [6] was greater than 100 µM. For the same compound, the TGI [7] was greater than 100 µM, the TGI [59] was greater than 100 µM and the TGI [51] was greater than 100 µM. It also gave a TGI [8] greater than 100 µM, a TGI [9] greater than 100 µM and a TGI [10] greater than 100 µM. For the same compound, the TGI [11] was greater than 100 µM, the TGI [13] was greater than 100 µM and the TGI [15] was greater than 100 µM. It also gave a TGI [16] greater than 100 µM, a TGI [18] greater than 100 µM and a TGI [19] greater than 100 µM. For the same compound, the TGI [20] was greater than 100 µM, the TGI [21] was greater than 100 µM and the TGI [22] was greater than 100 µM. The TGI [23] was greater than 100 µM, the TGI [24] was greater than 100 µM and the TGI [25] was greater than 100 µM. It also gave a TGI [26] greater than 100 µM, a TGI [52] greater than 100 µM and a TGI [27] greater than 100 µM. It also gave a TGI [28] greater than 100 µM, a TGI [53] greater than 100 µM and a TGI [29] greater than 100 µM. It also gave a TGI [30] greater than 100 µM, a TGI [31] greater than 100 µM and a TGI [32] greater than 100 µM. It also gave a TGI [54] greater than 100 µM, a TGI [34] greater than 100 µM and a TGI [55] greater than 100 µM. The TGI [35] was greater than 100 µM, the TGI [36] was greater than 100 µM and the TGI [37] was greater than 100 µM. It also gave a TGI [38] greater than 100 µM, a TGI [39] greater than 100 µM and a TGI [40] greater than 100 µM. For the same compound, the TGI [56] was greater than 100 µM, the TGI [41] was greater than 100 µM and the TGI [42] was greater than 100 µM. The TGI [43] was greater than 100 µM, the TGI [45] was greater than 100 µM and the TGI [46] was greater than 100 µM. For the same compound, the TGI [47] was greater than 100 µM, the TGI [57] was greater than 100 µM and the TGI [48] was greater than 100 µM. It also gave a TGI [58] greater than 100 µM and a TGI [50] greater than 100 µM.

Source: PubChem BioAssay (NCI)
